Read-outs that look alike come from different tables or passages of the source.
Molecular target: T1, Androgen Receptor (Homo sapiens, UniProt P10275)
T1 construct: endogenous in cells; host or cells: VCaP cells
T1 sequence (P10275 1-920): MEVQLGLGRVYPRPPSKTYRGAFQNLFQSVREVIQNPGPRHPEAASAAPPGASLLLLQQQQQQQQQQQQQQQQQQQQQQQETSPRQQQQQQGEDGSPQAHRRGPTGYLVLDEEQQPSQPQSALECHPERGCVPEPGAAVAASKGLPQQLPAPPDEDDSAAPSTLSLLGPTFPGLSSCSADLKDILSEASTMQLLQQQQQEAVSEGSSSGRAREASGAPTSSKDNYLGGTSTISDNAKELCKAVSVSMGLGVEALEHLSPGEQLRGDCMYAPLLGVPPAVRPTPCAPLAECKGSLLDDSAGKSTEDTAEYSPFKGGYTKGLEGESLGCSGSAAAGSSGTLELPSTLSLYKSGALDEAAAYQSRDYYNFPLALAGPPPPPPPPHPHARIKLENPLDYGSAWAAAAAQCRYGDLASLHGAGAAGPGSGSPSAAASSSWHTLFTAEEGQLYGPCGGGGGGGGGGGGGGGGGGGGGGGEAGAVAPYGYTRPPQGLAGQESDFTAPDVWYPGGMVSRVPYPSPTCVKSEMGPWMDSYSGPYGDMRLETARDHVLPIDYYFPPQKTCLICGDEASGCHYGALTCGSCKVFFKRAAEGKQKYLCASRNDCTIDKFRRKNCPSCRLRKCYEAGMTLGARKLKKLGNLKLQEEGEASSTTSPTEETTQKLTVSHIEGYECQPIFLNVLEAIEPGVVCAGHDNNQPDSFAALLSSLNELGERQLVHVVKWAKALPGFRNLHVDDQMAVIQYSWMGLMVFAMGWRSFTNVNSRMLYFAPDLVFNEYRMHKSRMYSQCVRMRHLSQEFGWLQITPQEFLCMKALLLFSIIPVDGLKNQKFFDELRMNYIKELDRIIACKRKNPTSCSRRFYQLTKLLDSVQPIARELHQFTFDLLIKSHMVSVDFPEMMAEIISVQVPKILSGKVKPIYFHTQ
Assay: Androgen Receptor ELISA assay (PathScan AR ELISA) in VCaP cells: AR degradation, Dmax and DC50
Type: cell-based
Outline: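 VCaP cells, 30,000/well, grown ≥3 days in phenol red-free RPMI with 5% charcoal-stripped FBS; compound added in 0.1% DMSO with 0.1 nM R1881, 7 half-log doses, 24 h. Lysate AR quantified by PathScan sandwich ELISA, HRP/TMB read at 450 nm, giving DC50 and Dmax.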

[1] = VCaP cells; Table 35; read-out: VCaP DC50
[2] = VCaP, VCaP cells; Table 35; read-out: VCaP Dmax (%)
[3] = read-out: VCaP DC50; VCaP cells; Table 35

| DC50 [1] [nM] | Dmax [2] [%] | Structure (SMILES) | Dmax (VCaP, read-out: VCaP Dmax (%)) [%] | DC50 [3] [nM] |
| --- | --- | --- | --- | --- |
| > 501 | 26 to 50 | Cc1ncsc1-c1ccc([C@@H](C)NC(=O)[C@H]2C[C@H](O)CN2C(=O)[C@H](NC(=O)COCCCCCNc2ccc(C(=O)N[C@H]3C(C)(C)[C@H](Oc4ccc(C#N)c(Cl)c4)C3(C)C)cc2)C(C)(C)C)cc1 [Example 454] |  |  |
| > 501 | 51 to 70 | Cc1ncsc1-c1ccc([C@H](C)NC(=O)[C@@H]2C[C@@H](O)CN2C(=O)C(NC(=O)COCCCCCNc2ccc(C(=O)N[C@H]3C(C)(C)[C@@H](Oc4ccc(C#N)c(Cl)c4)C3(C)C)cc2)C(C)(C)C)cc1 (some centres unmarked) [Example 455] |  |  |
| > 501 | < 25 | Cc1ncsc1-c1ccc([C@H](C)NC(=O)[C@@H]2C[C@@H](O)CN2C(=O)[C@H](NC(=O)COCCCCCNc2ccc(C(=O)N[C@H]3C(C)(C)[C@H](Oc4ccc(C#N)c(Cl)c4)C3(C)C)cc2)C(C)(C)C)cc1 [Example 457] |  |  |
| > 501 | < 25 | Cc1ncsc1-c1ccc([C@H](C)NC(=O)[C@H]2C[C@@H](O)CN2C(=O)[C@@H](NC(=O)COCCCCCNc2ccc(C(=O)N[C@H]3C(C)(C)[C@H](Oc4ccc(C#N)c(Cl)c4)C3(C)C)cc2)C(C)(C)C)cc1 [Example 458] |  |  |
| > 501 | 26 to 50 | Cc1ncsc1-c1ccc([C@@H](C)NC(=O)[C@@H]2C[C@@H](O)CN2C(=O)[C@@H](NC(=O)COCCCCCNc2ccc(C(=O)N[C@H]3C(C)(C)[C@H](Oc4ccc(C#N)c(Cl)c4)C3(C)C)cc2)C(C)(C)C)cc1 [Example 459] |  |  |
| < 50 | > 71 | Cc1ncsc1-c1ccc([C@H](CN2CCCC2)NC(=O)[C@@H]2C[C@@H](O)CN2C(=O)[C@@H](NC(=O)COCCCCCOc2ccc(C(=O)N[C@H]3C(C)(C)[C@H](Oc4ccc(C#N)c(Cl)c4)C3(C)C)cc2)C(C)(C)C)cc1 [Example 465] |  |  |
| 51 to 500 | > 71 | Cc1ncsc1-c1ccc([C@@H](CN2CCCC2)NC(=O)[C@@H]2C[C@@H](O)CN2C(=O)[C@@H](NC(=O)COCCCCCOc2ccc(C(=O)N[C@H]3C(C)(C)[C@H](Oc4ccc(C#N)c(Cl)c4)C3(C)C)cc2)C(C)(C)C)cc1 [Example 466] |  |  |
| > 501 | 26 to 50 | Cc1ncsc1-c1ccc([C@@H](CN(C)C)NC(=O)[C@@H]2C[C@@H](O)CN2C(=O)[C@@H](NC(=O)COCCCCCOc2ccc(C(=O)N[C@H]3C(C)(C)[C@H](Oc4ccc(C#N)c(Cl)c4)C3(C)C)cc2)C(C)(C)C)cc1 [Example 471] |  |  |
| < 50 | 26 to 50 | Cc1ncsc1-c1ccc([C@H](C)NC(=O)[C@@H]2C[C@@H](O)CN2C(=O)[C@@H](NC(=O)COCCCCCNc2ccc(C(=O)N(C)[C@H]3C(C)(C)[C@H](Oc4ccc(C#N)c(Cl)c4)C3(C)C)cc2)C(C)(C)C)cc1 [Example 473] |  |  |
| < 50 | 26 to 50 | Cc1ncsc1-c1ccc([C@@H](CN)NC(=O)[C@@H]2C[C@@H](O)CN2C(=O)[C@@H](NC(=O)COCCCCCOc2ccc(C(=O)N[C@H]3C(C)(C)[C@H](Oc4ccc(C#N)c(Cl)c4)C3(C)C)cc2)C(C)(C)C)cc1 [Example 474] |  |  |
| < 50 | > 71 | Cc1ncsc1-c1ccc([C@H](CN)NC(=O)[C@@H]2C[C@@H](O)CN2C(=O)[C@@H](NC(=O)COCCCCCOc2ccc(C(=O)N[C@H]3C(C)(C)[C@H](Oc4ccc(C#N)c(Cl)c4)C3(C)C)cc2)C(C)(C)C)cc1 [Example 475] |  |  |
| < 50 | > 71 | Cc1ncsc1-c1ccc(CNC(=O)[C@@H]2C[C@@H](O)CN2C(=O)[C@@H](NC(=O)COCCCCCS(=O)(=O)c2ccc(C(=O)N[C@H]3C(C)(C)[C@H](Oc4ccc(C#N)c(Cl)c4)C3(C)C)cc2)C(C)(C)C)cc1 [Example 476] |  |  |
|  | < 25 | Cc1ncsc1-c1ccc(CNC(=O)[C@@H]2C[C@@H](O)CN2C(=O)[C@@H](NC(=O)COCCCOCCCCCOc2ccc(N3C(=S)N(c4ccccc4)C(=O)C3(C)C)cc2)C(C)(C)C)cc1 [Example 477] |  |  |
| 51 to 500 | 26 to 50 | Cc1ncsc1-c1ccc(CNC(=O)[C@@H]2C[C@@H](O)CN2C(=O)[C@@H](NC(=O)COCCCOCCCCCOc2ccc(N3C(=S)N(c4cccc(C(F)(F)F)c4)C(=O)C3(C)C)cc2)C(C)(C)C)cc1 [Example 478] |  |  |
|  | 26 to 50 | Cc1ncsc1-c1ccc(CNC(=O)[C@@H]2C[C@@H](O)CN2C(=O)[C@@H](NC(=O)COCCCOCCCCCOc2ccc(N3C(=S)N(c4ccc(C#N)cc4)C(=O)C3(C)C)cc2)C(C)(C)C)cc1 [Example 479] |  |  |
| > 501 | < 25 | Cc1ncsc1-c1ccc(CNC(=O)[C@@H]2C[C@H](O)CN2C(=O)[C@@H](NC(=O)COCCOc2ccc(-c3ccc(C(=O)N[C@H]4C(C)(C)[C@H](Oc5ccc(C#N)c(Cl)c5)C4(C)C)cc3)cc2)C(C)(C)C)cc1 [Example 481] |  |  |
| < 50 | 51 to 70 | Cc1ncsc1-c1ccc([C@H](C)NC(=O)[C@@H]2C[C@@H](O)CN2C(=O)[C@@H](NC(=O)COCCCCCNc2ccc(C(=O)N[C@H]3C(C)(C)[C@H](Oc4ccc(C#N)c(Cl)c4)C3(C)C)nc2)C(C)(C)C)cc1 [Example 482] |  |  |

The next lines start with the compound.

| Structure (SMILES) | DC50 [1] [nM] | Dmax [2] [%] | Dmax (VCaP, read-out: VCaP Dmax (%)) [%] | DC50 [3] [nM] |
| --- | --- | --- | --- | --- |
| Cc1nccn1-c1ccc([C@H](C)NC(=O)[C@@H]2C[C@@H](O)CN2C(=O)[C@@H](NC(=O)COCCOc2ccc(-c3ccc(C(=O)N[C@H]4C(C)(C)[C@H](Oc5ccc(C#N)c(Cl)c5)C4(C)C)cc3)cc2)C(C)(C)C)cc1 [Example 449] | < 50 | > 71 |  |  |
| Cc1ncsc1-c1ccc([C@H](C)NC(=O)[C@@H]2C[C@@H](O)CN2C(=O)[C@@H](NC(=O)COCCOc2ccc(-c3ccc(C(=O)N[C@H]4C(C)(C)[C@H](Oc5ccc(C#N)c(Cl)c5)C4(C)C)cc3)cc2)C(C)(C)C)cc1 [Example 450] | < 50 | > 71 |  |  |
| CN(C)c1ccc(CNC(=O)[C@@H]2C[C@@H](O)CN2C(=O)[C@@H](NC(=O)COCCCOCCCCCOc2ccc(N3C(=S)N(c4ccc(C#N)c(C(F)(F)F)c4)C(=O)C3(C)C)cc2)C(C)(C)C)cn1 [Example 451] |  |  | < 25 | > 501 |
| C[C@H](NC(=O)[C@@H]1C[C@@H](O)CN1C(=O)[C@@H](NC(=O)COCCCOCCCCCOc1ccc(N2C(=S)N(c3ccc(C#N)c(C(F)(F)F)c3)C(=O)C2(C)C)cc1)C(C)(C)C)c1ccc(-c2nccn2C)cc1 [Example 452] |  |  | < 25 | > 501 |
| Cc1ncsc1-c1ccc(CNC(=O)[C@@H]2C[C@@H](O)CN2C(=O)[C@@H](NC(=O)COCCCOCCCCCOc2ccc(N3C(=S)N(c4ccc(C#N)c(C(F)(F)F)c4)C(=O)C3(C)C)cc2)C(C)(C)C)nc1 [Example 453] |  |  | < 25 | > 501 |
| Cc1ncsc1-c1ccc([C@H](C)NC(=O)[C@@H]2C[C@@H](O)CN2C(=O)[C@@H](NC(=O)COCCC2CCN(c3ccc(C(=O)N[C@H]4C(C)(C)[C@H](Oc5ccc(C#N)c(Cl)c5)C4(C)C)cc3)CC2)C(C)(C)C)cc1 [Example 456] | < 50 | > 71 |  |  |
| Cc1ncsc1-c1ccc([C@H](C)NC(=O)[C@@H]2CC(OC(=O)[C@@H]3CCCN3)CN2C(=O)[C@@H](NC(=O)COCCCCCNc2ccc(C(=O)N[C@H]3C(C)(C)[C@H](Oc4ccc(C#N)c(Cl)c4)C3(C)C)cc2)C(C)(C)C)cc1 (some centres unmarked) [Example 461] | < 50 | > 71 |  |  |
| Cc1ncsc1-c1ccc([C@H](C)NC(=O)[C@@H]2C[C@@H](OC(=O)C(C)C)CN2C(=O)[C@@H](NC(=O)COCCCCCNc2ccc(C(=O)N[C@H]3C(C)(C)[C@H](Oc4ccc(C#N)c(Cl)c4)C3(C)C)cc2)C(C)(C)C)cc1 [Example 468] | < 50 | > 71 |  |  |
| Cc1ncsc1-c1ccc(CNC(=O)[C@@H]2C[C@@H](O)CN2C(=O)[C@@H](NC(=O)CS(=O)(=O)CCOc2ccc(-c3ccc(C(=O)N[C@H]4C(C)(C)[C@H](Oc5ccc(C#N)c(Cl)c5)C4(C)C)cc3)cc2)C(C)(C)C)cc1 [Example 472] | < 50 | > 71 |  |  |
| CC(C)(C)[C@H](NC(=O)CNCCCCCNc1ccc(C(=O)N[C@H]2C(C)(C)[C@H](Oc3ccc(C#N)c(Cl)c3)C2(C)C)cc1)C(=O)N1C[C@H](O)C[C@H]1C(=O)NCc1ccc(C#N)cc1 [Example 480] | > 501 | 26 to 50 |  |  |
| Cc1ncsc1-c1ccc([C@H](C)NC(=O)[C@@H]2C[C@@H](O)CN2C(=O)[C@@H](NC(=O)CNCCNc2ccc(-c3ccc(C(=O)N[C@H]4C(C)(C)[C@H](Oc5ccc(C#N)c(Cl)c5)C4(C)C)cc3)cn2)C(C)(C)C)cc1 [Example 483] | < 50 | > 71 |  |  |
| Cc1ncsc1-c1ccc(CNC(=O)[C@@H]2C[C@@H](O)CN2C(=O)[C@@H](NC(=O)CNCCNc2ccc(-c3ccc(C(=O)N[C@H]4C(C)(C)[C@H](Oc5ccc(C#N)c(Cl)c5)C4(C)C)cc3)cn2)C(C)(C)C)cc1 [Example 484] | < 50 | 51 to 70 |  |  |

Reference: patent publication US11427548B2 (Arvinas Operations, Inc., priority 2015, dated 2022)
